Measurements published in article PMC9786881 (Viruses, 2022).

Target: RABV NΔ23^0 (nucleoprotein aa 24-450) (Rabies virus, UniProt Q8JXF6)
Type: binding, rabies virus (strain CVS-11)

CC[C@H](C)[C@H](NC(=O)[C@H](C)NC(=O)[C@H](CO)NC(=O)[C@@H]1CCCN1C(=O)[C@H](CC(N)=O)NC(=O)[C@@H](NC(=O)[C@H](Cc1ccccc1)NC(=O)[C@@H](NC(=O)[C@H](CCCCN)NC(=O)[C@H](CO)NC(=O)[C@H](CCSC)NC(=O)[C@H](CO)NC(=O)[C@H](C)NC(=O)CN)[C@@H](C)CC)C(C)C)C(=O)N[C@@H](CCCNC(=N)N)C(=O)N[C@@H](C)C(=O)NCC(=O)N[C@@H](CC(C)C)C(=O)N[C@@H](C)C(=O)N[C@@H](CC(=O)O)C(=O)N[C@@H](CC(C)C)C(=O)N[C@@H](CCC(=O)O)C(=O)N[C@@H](CCSC)C(=O)N[C@@H](C)C(=O)N[C@@H](CCC(=O)O)C(=O)N[C@@H](CCC(=O)O)C(=O)N[C@H](C(=O)N[C@H](C(=O)N[C@@H](CC(=O)O)C(=O)N[C@@H](CC(C)C)C(=O)N[C@H](C(=O)N[C@@H](CC(N)=O)C(=O)N[C@@H](CCCNC(=N)N)C(=O)N[C@@H](CC(N)=O)C(=O)N[C@H](C(=O)N[C@@H](CCC(=O)O)C(=O)N[C@@H](CC(=O)O)C(=O)N[C@@H](CC(N)=O)C(=O)N[C@@H](CCC(N)=O)C(=O)N[C@@H](C)C(=O)N[C@@H](Cc1c[nH]cn1)C(=O)N[C@@H](CC(C)C)C(=O)N[C@@H](CCC(N)=O)C(=O)N[C@@H](CSC1CC(=O)N(CCNC(=O)c2ccc3c(c2)C(=O)OC32c3ccc(O)cc3Oc3cc(O)ccc32)C1=O)C(=O)N[C@@H](CCC(=O)O)C(=O)O)[C@@H](C)CC)[C@@H](C)CC)C(C)C)[C@@H](C)O (stereo partly shown) [P42-G41C*]
half time of dissociation: 256 min
